Measured values reported in US20200247800A1, “SUBSTITUTED BICYCLIC HETEROCYCLIC COMPOUNDS AS NADPH OXIDASE INHIBITORS” (Glenmark Pharmaceuticals S.A., priority 2017, published 2020).

Molecular target: T1, human NOX4 (Homo sapiens, UniProt Q9NPH5)
T1 construct: expressed in transfected cells; membrane fraction used
T1 sequence (Q9NPH5 1-578): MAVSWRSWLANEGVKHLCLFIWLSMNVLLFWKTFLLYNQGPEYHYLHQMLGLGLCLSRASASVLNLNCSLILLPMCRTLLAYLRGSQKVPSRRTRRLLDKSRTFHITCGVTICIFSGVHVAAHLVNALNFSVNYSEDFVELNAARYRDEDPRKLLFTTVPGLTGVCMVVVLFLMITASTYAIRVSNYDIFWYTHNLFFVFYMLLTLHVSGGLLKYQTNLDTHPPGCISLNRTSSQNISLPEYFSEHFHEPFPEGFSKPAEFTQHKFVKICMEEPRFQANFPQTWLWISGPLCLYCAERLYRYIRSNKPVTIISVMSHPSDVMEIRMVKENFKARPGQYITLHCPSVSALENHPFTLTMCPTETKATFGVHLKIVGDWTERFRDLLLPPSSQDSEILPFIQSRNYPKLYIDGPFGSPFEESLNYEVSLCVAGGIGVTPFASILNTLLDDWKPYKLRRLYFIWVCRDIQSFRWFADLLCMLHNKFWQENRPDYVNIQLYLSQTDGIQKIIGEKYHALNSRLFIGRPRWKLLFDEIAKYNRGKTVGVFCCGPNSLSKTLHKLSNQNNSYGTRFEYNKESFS
T1 sequence (P13498 1-195 partner): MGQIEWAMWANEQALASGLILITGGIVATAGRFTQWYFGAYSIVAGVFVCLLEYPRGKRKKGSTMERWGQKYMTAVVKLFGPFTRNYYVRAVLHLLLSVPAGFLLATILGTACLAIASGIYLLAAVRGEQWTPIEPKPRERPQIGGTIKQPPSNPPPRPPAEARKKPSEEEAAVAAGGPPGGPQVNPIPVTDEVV
Test: Cell free membrane based in vitro NOX4 assay: H2O2 production by membranes expressing human NOX4, measured with Amplex Red
Type: biochemical
Settings: for inhibition at 1 µM: 1.0 μM compound, read-out: Percentage inhibition at 1.0 μM; for inhibition at 10 µM: 10.0 μM compound, read-out: Percentage inhibition at 10.0 μM; for IC50: class symbols
Method: The inhibition of NOX4 activity was measured as inhibition of formation of reactive oxygen species (ROS) from oxygen in cell free assays. […] A cell free membrane based in vitro assay was developed by preparing membranes from cells stably overexpressing human NOX4. hNOX4/HEK stable cell line was generated in-house for this purpose. Membranes from stably transfected cells overexpressing human NOX4 were prepared by homogenizing the cells in buffer (20 mM HEPES, 1 mM EGTA, 0.5 mM DTT, 0.5% protease inhibitor cocktail, 1 mM PMSF, pH 7.6), followed by centrifugation at 160000 g for 30 min. Membrane fraction (pellet) was resuspended in storage buffer (homogenization buffer with 10% glycerol and 100 mM NaCl) and stored at −80° C. Protein concentration was determined by Bradford reagent. H202 production by membranes expressing human NOX4 was measured using Amplex Red (Invitrogen) by following a slightly modified version of the manufacturer's instruction manual. Briefly, membranes were incubated in assay buffer (25 mM HEPES, 0.12 M NaCl, 3 mM KCl, 1 mM MgCl2, pH 7.4) with Horse Radish Peroxidase (HRP) and Amplex Red. Reaction was started by addition of […] to the membrane mix. Antagonism of NOX4 inhibitors was measured by incubating the membrane with increasing concentrations of the inhibitors for 20 min on a plate shaker prior to addition of NADPH. H2O2 levels were measured for 10 min in a BMG Fluostar microplate reader with excitation and emission wavelengths of 544 nm and 590 nm respectively. Concentration response curves were plotted as a % of maximal response obtained in the absence of the inhibitor. IC50 value was calculated from concentration response curve by nonlinear regression analysis using GraphPad PRISM software.

Structure (SMILES) | inhibition at 1 µM [%] | inhibition at 10 µM [%] | IC50 [nM]
CCn1nc(C)c2c(=O)c(O)c(-c3ccccc3F)[nH]c21 [Example 107, 1-Ethyl-6-(2-fluorophenyl)-5-hydroxy-3-methyl-1,7-dihydro-4H-pyrazolo[3,4-b]pyridin-4-one] | 70.8 | 61.2 | > 150
Cc1nn(C2CC2)c2[nH]c(-c3c(F)cc(F)cc3F)c(O)c(=O)c12 [Example 94, 1-Cyclopropyl-5-hydroxy-3-methyl-6-(2,4,6-trifluorophenyl)-1H-pyrazolo[3,4-b]pyridin-4(7H)-one] | 72.5 | 80 | > 150
NC(=O)c1nsc2c(=O)c(O)c(-c3ccccc3Cl)[nH]c12 [Example 78, 5-(2-Chlorophenyl)-6-hydroxy-7-oxo-4,7-dihydroisothiazolo[4,5-b]pyridine-3-carboxamide] | 55.3 | 89.3 | > 150
Cn1nc(Cc2ccccc2Cl)c2c(=O)c(O)c(-c3ccccc3Cl)[nH]c21 [Example 145, 3-(2-Chlorobenzyl)-6-(2-chlorophenyl)-5-hydroxy-1-methyl-1H-pyrazolo[3,4-b]pyridin-4(7H)-one] | 90 | 93.2 | > 150
O=c1c(O)c(-c2c(F)cccc2F)[nH]c2c1c(C(F)(F)F)nn2C1CCOCC1 [Example 134, 6-(2,6-Difluorophenyl)-5-hydroxy-1-(tetrahydro-2H-pyran-4-yl)-3-(trifluoromethyl)-1,7-dihydro-4H-pyrazolo[3,4-b]pyridin-4-one] | 57.1 | 88.2 | > 150
O=c1c(O)c(-c2c(F)cccc2F)[nH]c2c1c(CN1CCOCC1)nn2C1CC1 [Example 201, 1-Cyclopropyl-6-(2,6-difluorophenyl)-5-hydroxy-3-(morpholinomethyl)-1H-pyrazolo[3,4-b]pyridin-4(7H)-one] | 74 | 87 | > 150
CCCn1nc(CC)c2c(=O)c(O)c(-c3ccc(F)cc3F)[nH]c21 [Example 170, 6-(2,4-Difluorophenyl)-3-ethyl-5-hydroxy-1-propyl-1H-pyrazolo[3,4-b]pyridin-4(7H)-one] | 74.4 |  | > 150
Cc1nn(C)c2c(=O)c(O)c(-c3ccccc3Cl)[nH]c12 [Example 83, 5-(2-Chlorophenyl)-6-hydroxy-1,3-dimethyl-1H-pyrazolo[4,3-b]pyridin-7(4H)-one] | 74.4 | 99 | > 150
CCc1nn(C)c2[nH]c(-c3cccc(C(F)(F)F)c3F)c(O)c(=O)c12 [Example 160, 3-Ethyl-6-(2-fluoro-3-(trifluoromethyl)phenyl)-5-hydroxy-1-methyl-1H-pyrazolo[3,4-b]pyridine-4(7H)-one] | 80.7 | 68.9 | > 150
CS(=O)(=O)N1CCC(c2nn(C3CC3)c3[nH]c(-c4c(F)cccc4F)c(O)c(=O)c23)CC1 [Example 186, 1-Cyclopropyl-6-(2,6-difluorophenyl)-5-hydroxy-3-(1-(methylsulfonyl)piperidin-4-yl)-1H-pyrazolo[3,4-b]pyridin-4(7H)-one] | 71.9 | 81.2 | > 150
CCn1nc(C)c2c(=O)c(O)c(-c3ccccc3OC)[nH]c21 [Example 110, 1-Ethyl-5-hydroxy-6-(2-methoxyphenyl)-3-methyl-1H-pyrazolo[3,4-b]pyridin-4(7H)-one] | 60.5 | 63 | > 150
CCn1nc(CC(C)C)c2c(=O)c(O)c(-c3c(F)cccc3F)[nH]c21 [Example 122, 6-(2,6-Difluorophenyl)-1-ethyl-5-hydroxy-3-(2-methylpropyl)-1,7-dihydro-4H-pyrazolo[3,4-b]pyridin-4-one] | 72.7 | 75.4 | > 150

More lines, now with the values ahead:

inhibition at 1 µM [%] | inhibition at 10 µM [%] | IC50 [nM] | Structure (SMILES)
95 | 86 | 50 to 100 | Cc1nn(C)c2[nH]c(-c3ccc(F)cc3Cl)c(O)c(=O)c12 [Example 12, 6-(2-Chloro-4-fluorophenyl)-5-hydroxy-1,3-dimethyl-1,7-dihydro-4H-pyrazolo[3,4-b]pyridin-4-one]
75.6 | 76.5 | 100 to 150 | COCCCn1nc(C)c2c(=O)c(O)c(-c3c(F)cccc3F)[nH]c21 [Example 92, 6-(2,6-Difluorophenyl)-5-hydroxy-1-(3-methoxypropyl)-3-methyl-1H-pyrazolo[3,4-b]pyridin-4(7H)-one]
92.4 | 93.7 | 50 to 100 | CCc1nn(CCC2CCOCC2)c2[nH]c(-c3c(F)cccc3F)c(O)c(=O)c12 [Example 211]
79.8 | 73.1 | 50 to 100 | CCc1nn(C)c2[nH]c(-c3ccc(OC)cc3Cl)c(O)c(=O)c12 [Example 73, 6-(2-Chloro-4-methoxyphenyl)-3-ethyl-5-hydroxy-1-methyl-1H-pyrazolo[3,4-b]pyridin-4(7H)-one]
100 | 100 | 100 to 150 | C[C@@H]1CN(Cc2nn(C)c3[nH]c(-c4c(F)cccc4F)c(O)c(=O)c23)C[C@H](C)O1 [Example 197, 6-(2,6-Difluorophenyl)-3-((2,6-dimethylmorpholino)methyl)-5-hydroxy-1-methyl-1H-pyrazolo[3,4-b]pyridin-4(7H)-one]
93.5 | 89.9 | 100 to 150 | Cc1nn(CCN2CCOCC2)c2[nH]c(-c3ccccc3C(F)(F)F)c(O)c(=O)c12 [Example 152, 5-Hydroxy-3-methyl-1-(2-morpholinoethyl)-6-(2-(trifluoromethyl)phenyl)-1H-pyrazolo[3,4-b]pyridin-4(7H)-one]
98.3 | 96 | 50 to 100 | Cn1nc(C2CCN(S(C)(=O)=O)CC2)c2c(=O)c(O)c(-c3ccccc3Cl)[nH]c21 [Example 194, 6-(2-chlorophenyl)-5-hydroxy-1-methyl-3-(1-(methylsulfonyl)piperidin-4-yl)-1H-pyrazolo[3,4-b]pyridin-4(7H)-one]
91.4 | 90.7 | < 50 | CCc1nn(CCN2C[C@@H](C)O[C@@H](C)C2)c2[nH]c(-c3c(F)cccc3F)c(O)c(=O)c12 [Example 200, 6-(2,6-Difluorophenyl)-1-(2-((2R,6S)-2,6-dimethylmorpholino)ethyl)-3-ethyl-5-hydroxy-1H-pyrazolo[3,4-b]pyridin-4(7H)-one]
91.2 | 97.8 | 50 to 100 | Cn1nc(CN2CCOCC2)c2c(=O)c(O)c(-c3c(F)cccc3F)[nH]c21 [Example 191, 6-(2,6-difluorophenyl)-5-hydroxy-1-methyl-3-(morpholinomethyl)-1H-pyrazolo[3,4-b]pyridin-4(7H)-one]
100 | 100 | < 50 | CCc1nn(CCn2cccn2)c2[nH]c(-c3c(F)cccc3F)c(O)c(=O)c12 [Example 158, 1-(2-(1H-pyrazol-1-yl)ethyl)-6-(2,6-difluorophenyl)-3-ethyl-5-hydroxy-1H-pyrazolo[3,4-b]pyridin-4(7H)-one]
84 | 81.3 | 100 to 150 | CCc1nn(CCCN2CCOCC2)c2[nH]c(-c3c(F)cccc3F)c(O)c(=O)c12 [Example 175, 6-(2,6-Difluorophenyl)-3-ethyl-5-hydroxy-1-(3-morpholinopropyl)-1H-pyrazolo[3,4-b]pyridin-4(7H)-one]
94.3 | 64.9 | 100 to 150 | Cc1nn(CCCN2CCOCC2)c2[nH]c(-c3ccccc3Cl)c(O)c(=O)c12 [Example 147, 6-(2-Chlorophenyl)-5-hydroxy-3-methyl-1-(3-morpholinopropyl)-1H-pyrazolo[3,4-b]pyridin-4(7H)-one]
